Measurements: paper PMC5805707 (Scientific Reports, 2018)

Target: T1, cytochrome bd (Mycobacterium tuberculosis, UniProt L7N662)
T1 construct: gene cydA; native complex in inverted membrane vesicles of strain mc^2 6020
Test: NADH-driven oxygen consumption of inverted membrane vesicles (Clark electrode); maximal inhibition […]
Assay type: biochemical

T1 sequence (O06139 entry or part of it): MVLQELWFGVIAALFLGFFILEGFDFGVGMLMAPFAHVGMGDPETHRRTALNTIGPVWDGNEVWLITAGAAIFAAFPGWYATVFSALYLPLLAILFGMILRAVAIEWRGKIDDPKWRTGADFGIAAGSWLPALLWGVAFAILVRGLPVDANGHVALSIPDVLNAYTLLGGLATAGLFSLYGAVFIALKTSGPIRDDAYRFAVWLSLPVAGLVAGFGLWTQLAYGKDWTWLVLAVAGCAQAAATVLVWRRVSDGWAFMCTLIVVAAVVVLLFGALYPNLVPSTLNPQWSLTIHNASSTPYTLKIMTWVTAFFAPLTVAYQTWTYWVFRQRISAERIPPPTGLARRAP
T1 sequence (L7N662 entry or part of it): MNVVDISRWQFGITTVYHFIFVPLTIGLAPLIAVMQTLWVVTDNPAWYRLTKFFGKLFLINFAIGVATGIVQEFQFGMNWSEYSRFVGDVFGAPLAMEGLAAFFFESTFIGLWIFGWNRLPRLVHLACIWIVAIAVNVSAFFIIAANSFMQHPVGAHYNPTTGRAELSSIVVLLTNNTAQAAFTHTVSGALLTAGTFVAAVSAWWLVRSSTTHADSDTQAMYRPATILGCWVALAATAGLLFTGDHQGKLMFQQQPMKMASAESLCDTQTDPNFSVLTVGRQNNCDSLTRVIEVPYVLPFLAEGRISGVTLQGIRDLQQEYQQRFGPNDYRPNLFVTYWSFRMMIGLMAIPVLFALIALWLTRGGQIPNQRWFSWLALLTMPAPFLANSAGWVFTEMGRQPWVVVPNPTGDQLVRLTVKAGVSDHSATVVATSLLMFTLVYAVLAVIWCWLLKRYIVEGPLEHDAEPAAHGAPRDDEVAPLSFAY

Work on `CC(C)=CCC/C(C)=C/CC/C(C)=C/Cc1c(C)[nH]c2ccccc2c1=O` [aurachin D] yielded an IC50 of roughly 400 nM.
